Molecules are shown by their SMILES. Where only a bound is given, the exact number is not on record here.

The values below come from patent publication US10947210B2 (priority 2015, dated 2021).

For the experiment, the target named is HCV RNA-dependent RNA polymerase (NS5B) (Hepatitis C virus genotype 1b (isolate BK) (HCV), UniProt P26663). Kind of experiment: RNA-Dependent RNA HCV NS5B (polymerase) Assay and IC50 Determination. It is filed as biochemical. The note with it: purified HCV NS5B polymerase, polyA:U16 substrate, 32P-UTP incorporation; read-out: IC50. In short, it runs like this: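 Purified NS5B was incubated with 0.5 uM polyA:U16, 10 μM UTP plus ^32P-UTP in 50 mM Hepes-KOH pH 7.5, 5 mM MgCl2, 5 mM DTT, 2% glycerol and 0.01% Triton X-100. Inhibitor reactions ran 60 min at 37° C, and radiolabelled RNA product was quantified after filter capture. IC50 values were obtained from concentration series.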
Chain of HCV RNA-dependent RNA polymerase (NS5B) (P26663 2420-3010): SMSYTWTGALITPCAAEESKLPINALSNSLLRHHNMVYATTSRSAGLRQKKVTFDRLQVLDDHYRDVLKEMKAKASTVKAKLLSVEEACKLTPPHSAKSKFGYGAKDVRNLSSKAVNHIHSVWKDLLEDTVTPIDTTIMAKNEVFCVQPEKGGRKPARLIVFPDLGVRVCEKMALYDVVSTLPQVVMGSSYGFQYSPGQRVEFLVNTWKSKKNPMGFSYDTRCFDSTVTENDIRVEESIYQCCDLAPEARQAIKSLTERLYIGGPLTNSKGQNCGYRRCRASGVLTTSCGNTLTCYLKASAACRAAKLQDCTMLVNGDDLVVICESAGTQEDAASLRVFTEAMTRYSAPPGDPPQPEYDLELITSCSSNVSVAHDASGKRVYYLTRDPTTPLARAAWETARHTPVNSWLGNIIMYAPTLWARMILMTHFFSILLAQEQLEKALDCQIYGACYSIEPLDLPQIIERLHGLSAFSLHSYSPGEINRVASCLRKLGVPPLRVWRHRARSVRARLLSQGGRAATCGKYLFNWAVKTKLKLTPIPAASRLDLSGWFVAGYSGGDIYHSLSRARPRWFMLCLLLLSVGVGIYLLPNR
The IC50 is the concentration needed to halve the response being measured. For the compound `CNC(=O)c1c(-c2ccc(F)cc2)oc2cc(N(CCOCCOCCOCCOCCOCCOCc3ccc(C(=O)/C=C(\O)C(=O)O)cc3)S(C)(=O)=O)c(C3CC3)cc12` [Compound 02-10J, 4-(4-{2-[2-(2-{2-[2-(2-{[5-Cyclopropyl-2-(4-fluoro-phenyl)-3-methylcarbamoyl-benzofuran-6-yl]-methanesulfonyl-amino}-ethoxy)-ethoxy]-ethoxy}-ethoxy)-ethoxy]-ethoxymethyl}-phenyl)-2-hydroxy-4-oxo-but-2-enoic Acid], the IC50 is greater than 1000 nM.
With `CNC(=O)c1c(-c2ccc(F)cc2)oc2cc(N(CCOCCOCCOCC(=O)OC(C)(C)C)S(C)(=O)=O)c(C3CC3)cc12` [Compound 23-5A, {2-[2-(2-{[5-Cyclopropyl-2-(4-fluoro-phenyl)-3-methylcarbamoyl-benzofuran-6-yl]-methanesulfonyl-amino}-ethoxy)-ethoxy]-ethoxy}-acetic Acid Tert-butyl Ester] the figure was greater than 1000 nM; with `CNC(=O)c1c(-c2ccc(F)cc2)oc2cc(N(CCCOCCCc3ccc(C(=O)OC)cc3)S(C)(=O)=O)c(C3CC3)cc12` [Compound 13-7B, 4-[3-(3-{[5-Cyclopropyl-2-(4-fluoro-phenyl)-3-methylcarbamoyl-benzofuran-6-yl]-methanesulfonyl-amino}-propoxy)-propyl]-benzoic Acid Methyl Ester], 100 to 1000 nM.
The value for `CCOC(=O)C(OCCOCCOCCN(c1cc2oc(-c3ccc(F)cc3)c(C(=O)NC)c2cc1C1CC1)S(C)(=O)=O)c1ccccc1` (stereo not shown) [Compound 25-4, {2-[2-(2-{[5-Cyclopropyl-2-(4-fluoro-phenyl)-3-methylcarbamoyl-benzofuran-6-yl]-methanesulfonyl-amino}-ethoxy)-ethoxy]-ethoxy}-phenyl-acetic Acid Ethyl Ester] was greater than 1000 nM; that for `CNC(=O)c1c(-c2ccc(F)cc2)oc2cc(N(CCOCCOCc3ccc(C(=O)OCc4ccccc4)cc3)S(C)(=O)=O)c(C3CC3)cc12` [Compound 06-8B7, 4-[2-(2-{[5-Cyclopropyl-2-(4-fluoro-phenyl)-3-methylcarbamoyl-benzofuran-6-yl]-methanesulfonyl-amino}-ethoxy)-ethoxymethyl]-benzoic Acid Benzyl Ester] was 100 to 1000 nM; that for `CNC(=O)c1c(-c2ccc(F)cc2)oc2cc(N(CCOCCOCCc3cccc(C(=O)O)c3)S(C)(=O)=O)c(C3CC3)cc12` [Compound 11-6B, 3-{2-[2-(2-{[5-Cyclopropyl-2-(4-fluoro-phenyl)-3-methylcarbamoyl-benzofuran-6-yl]-methanesulfonyl-amino}-ethoxy)-ethoxy]-ethyl}-benzoic Acid] was less than 100 nM.
With `CNC(=O)c1c(-c2ccc(F)cc2)oc2cc(N(CCOCCOCCOCc3cccc(C(=O)O)c3)S(C)(=O)=O)c(C3CC3)cc12` [Compound 06-7F, 3-{2-[2-(2-{[5-Cyclopropyl-2-(4-fluoro-phenyl)-3-methylcarbamoyl-benzofuran-6-yl]-methanesulfonyl-amino}-ethoxy)-ethoxy]-ethoxymethyl}-benzoic Acid] the figure was less than 100 nM.
In the case of `CNC(=O)c1c(-c2ccc(F)cc2)oc2cc(N(CCOCCOCc3ccc(C(=O)O)c(C)c3)S(C)(=O)=O)c(C3CC3)cc12` [Compound 18-10A, 4-[2-(2-{[5-Cyclopropyl-2-(4-fluoro-phenyl)-3-methylcarbamoyl-benzofuran-6-yl]-methanesulfonyl-amino}-ethoxy)-ethoxymethyl]-2-methyl-benzoic Acid], the 50% inhibitory concentration (IC50) lay in the range of 100 to 1000 nM.
The value for `CNC(=O)c1c(-c2ccc(F)cc2)oc2cc(N(CC(=O)N(C)CC(=O)NCc3cccc(C(=O)C=C(O)C(=O)O)c3)S(C)(=O)=O)c(C3CC3)cc12` [Compound 09-14B, 4-[3-({2-[(2-{[5-Cyclopropyl-2-(4-fluoro-phenyl)-3-methylcarbamoyl-benzofuran-6-yl]-methanesulfonyl-amino}-acetyl)-methyl-amino]-acetylamino}-methyl)-phenyl]-2-hydroxy-4-oxo-but-2-enoic acid] was greater than 1000 nM; that for `CNC(=O)c1c(-c2ccc(F)cc2)oc2cc(N(CC(=O)NCC(=O)NCc3cccc(C(C)=O)c3)S(C)(=O)=O)c(C3CC3)cc12` [Compound 30-6, 6-[({[(3-Acetyl-benzylcarbamoyl)-methyl]-carbamoyl}-methyl)-methanesulfonyl-amino]-5-cyclopropyl-2-(4-fluoro-phenyl)-benzofuran-3-carboxylic acid methylamide] was greater than 1000 nM; that for `CNC(=O)c1c(-c2ccc(F)cc2)oc2cc(N(CCOCCCCc3ccc(C(=O)OC)cc3)S(C)(=O)=O)c(C3CC3)cc12` [Compound 13-7A, 4-[4-(2-{[5-Cyclopropyl-2-(4-fluoro-phenyl)-3-methylcarbamoyl-benzofuran-6-yl]-methanesulfonyl-amino}-ethoxy)-butyl]-benzoic Acid Methyl Ester] was 100 to 1000 nM.
For the compound `CNC(=O)c1c(-c2ccc(F)cc2)oc2cc(N(CCOCCOCc3ccc(C(=O)OC)cc3C)S(C)(=O)=O)c(C3CC3)cc12` [Compound 18-9B, 4-[2-(2-{[5-Cyclopropyl-2-(4-fluoro-phenyl)-3-methylcarbamoyl-benzofuran-6-yl]-methanesulfonyl-amino}-ethoxy)-ethoxymethyl]-3-methyl-benzoic Acid Methyl Ester], the 50% inhibitory concentration (IC50) is greater than 1000 nM.
For `CNC(=O)c1c(-c2ccc(F)cc2)oc2cc(N(CCOCCOCc3ccnc(Cl)c3)S(C)(=O)=O)c(C3CC3)cc12` [Compound 19-8A, 6-({2-[2-(2-Chloro-pyridin-4-ylmethoxy)-ethoxy]-ethyl}-methanesulfonyl-amino)-5-cyclopropyl-2-(4-fluoro-phenyl)-benzofuran-3-carboxylic Acid Methylamide], the IC50 was less than 100 nM.
The value for `CNC(=O)c1c(-c2ccc(F)cc2)oc2cc(N(CCOCCOCCOCc3ccc(C(=O)O)cc3)S(C)(=O)=O)c(C3CC3)cc12` [Compound 30-7, 4-{2-[2-(2-{[5-Cyclopropyl-2-(4-fluoro-phenyl)-3-methylcarbamoyl-benzofuran-6-yl]-methanesulfonyl-amino}-ethoxy)-ethoxy]-ethoxymethyl}-benzoic acid] was greater than 1000 nM; that for `CNC(=O)c1c(-c2ccc(F)cc2)oc2cc(N(CCOCCCCCOCC(=O)OC(C)(C)C)S(C)(=O)=O)c(C3CC3)cc12` [Compound 27-8A, [5-(2-{[5-Cyclopropyl-2-(4-fluoro-phenyl)-3-methylcarbamoyl-benzofuran-6-yl]-methanesulfonyl-amino}-ethoxy)-pentyloxy]-acetic Acid Tert-butyl Ester] was greater than 1000 nM; that for `CCOC(=O)/C(O)=C/C(=O)c1cccc(COCCOCCOCCOCCN(c2cc3oc(-c4ccc(F)cc4)c(C(=O)NC)c3cc2C2CC2)S(C)(=O)=O)c1` [Compound 02-9C, 4-[3-(2-{2-[2-(2-{[5-Cyclopropyl-2-(4-fluoro-phenyl)-3-methylcarbamoyl-benzofuran-6-yl]-methanesulfonyl-amino}-ethoxy)-ethoxy]-ethoxy}-ethoxymethyl)-phenyl]-2-hydroxy-4-oxo-but-2-enoic Acid Ethyl Ester] was greater than 1000 nM.
With `CNC(=O)c1c(-c2ccc(F)cc2)oc2cc(N(CCOCCOCCOCc3ccccc3C(=O)OC)S(C)(=O)=O)c(C3CC3)cc12` [Compound 06-6D, 2-{2-[2-(2-{[5-Cyclopropyl-2-(4-fluoro-phenyl)-3-methylcarbamoyl-benzofuran-6-yl]-methanesulfonyl-amino}-ethoxy)-ethoxy]-ethoxymethyl}-benzoic acid methyl ester] the figure was 100 to 1000 nM; with `CNC(=O)c1c(-c2ccc(F)cc2)oc2cc(N(CCOCCOCc3ccc(C(=O)O)c(N)c3)S(C)(=O)=O)c(C3CC3)cc12` [Compound 29-10, 2-Amino-4-[2-(2-{[5-cyclopropyl-2-(4-fluoro-phenyl)-3-methylcarbamoyl-benzofuran-6-yl]-methanesulfonyl-amino}-ethoxy)-ethoxymethyl]-benzoic Acid], 100 to 1000 nM; with `CNC(=O)c1c(-c2ccc(F)cc2)oc2cc(N(CCOCCOCc3ccc(C(C)=O)cc3)S(C)(=O)=O)c(C3CC3)cc12` [Compound 02-8F, 6-({2-[2-(4-Acetyl-benzyloxy)-ethoxy]-ethyl}-methanesulfonyl-amino)-5-cyclopropyl-2-(4-fluoro-phenyl)-benzofuran-3-carboxylic Acid Methylamide], greater than 1000 nM.
With `CCOC(=O)c1cc(COCCOCCN(c2cc3oc(-c4ccc(F)cc4)c(C(=O)NC)c3cc2C2CC2)S(C)(=O)=O)ccc1F` [Compound 30-14, 5-[2-(2-{[5-Cyclopropyl-2-(4-fluoro-phenyl)-3-methylcarbamoyl-benzofuran-6-yl]-methanesulfonyl-amino}-ethoxy)-ethoxymethyl]-2-fluoro-benzoic acid ethyl ester] the figure was greater than 1000 nM; with `CNC(=O)c1c(-c2ccc(F)cc2)oc2cc(N(CCOCCOCCOCCOCCOCc3cccc(C(C)=O)c3)S(C)(=O)=O)c(C3CC3)cc12` [Compound 02-8D, 6-({2-[2-(2-{2-[2-(3-Acetyl-benzyloxy)-ethoxy]-ethoxy}-ethoxy)-ethoxy]-ethyl}-methanesulfonyl-amino)-5-cyclopropyl-2-(4-fluoro-phenyl)-benzofuran-3-carboxylic Acid Methylamide], greater than 1000 nM; with `CNC(=O)c1c(-c2ccc(F)cc2)oc2cc(N(CCCCCCCc3ccc(C(=O)OC)cc3)S(C)(=O)=O)c(C3CC3)cc12` [Compound 13-7D, 4-(7-{[5-Cyclopropyl-2-(4-fluoro-phenyl)-3-methylcarbamoyl-benzofuran-6-yl]-methanesulfonyl-amino}-heptyl)-benzoic Acid Methyl Ester], 100 to 1000 nM.
